The structures appear in SMILES notation.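 In this assay, cells in 96-well plates receive the compound at five concentrations for 48 hours. Endpoints are linearly interpolated between the surrounding concentrations. At the GI50, growth is halved. TGI denotes the concentration required for complete inhibition of growth.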

Common to all, as to assay: growth of human tumour cells (NCI), 48 h
Experiment [1] has as its system CCRF-CEM leukemia.
Experiment [2] has as its system HCC-2998 colon.
Experiment [3] deals with K-562 leukemia.
In experiment [4] the test system is SF-539 CNS.
Experiment [5] relates to SK-MEL-5 melanoma.
In experiment [6] the test system is SR leukemia.
Experiment [7] concerns UACC-257 melanoma.
Experiment [8] deals with SW-620 colon.

In the case of `CNc1cc2nc3cc(NC)c(C)cc3cc2cc1C`, the GI50 in experiment [1] was 1.08 µM; in experiment [2], 1.6 µM; in experiment [3], 486 nM; in experiment [4], 2.06 µM; in experiment [5], 2050 nM; in experiment [6], 0.53 µM. Also, the GI50 in experiment [7] is 6.83 µM. Further, the TGI was 33.3 µM in experiment [1]; 14.7 µM in experiment [2]; above 100 µM in experiment [3]; 16.2 µM in experiment [4]; 14 µM in experiment [5]; above 100 µM in experiment [6]. For the same compound, the TGI in experiment [7] was 32.3 µM.

As for `CC(C)(CCN=C(N)Nc1ccccn1)c1ccc(C(F)(F)F)cc1`, the GI50 in experiment [1] was 17.7 µM; in experiment [2] it was 15.1 µM; in experiment [4], 15.3 µM; in experiment [5], 12000 nM; in experiment [6] it was 15.1 µM; in experiment [8], 16.1 µM. The GI50 in experiment [7] was 18 µM. In addition, the TGI came to 58.4 µM in experiment [1]; 29.6 µM in experiment [2]; 29.4 µM in experiment [4]; 25 µM in experiment [5]; 32.9 µM in experiment [6]; 34 µM in experiment [8]. Further, in experiment [7], the TGI stood at 32.8 µM.

For the compound `CCCCCc1cc[n+](CC(=O)c2ccc([N+](=O)[O-])cc2)cc1`, the GI50 in experiment [2] is 4.94 µM; in experiment [4] it was 20.3 µM; in experiment [5] it was 1950 nM; in experiment [8], 3.22 µM; in experiment [7] it was 2.28 µM. The TGI in experiment [2] was 17.6 µM; in experiment [4] it was 72.1 µM; in experiment [5] it was 4.56 µM; in experiment [8], above 100 µM; in experiment [7], 7.08 µM.

For `Clc1nc(Cl)c2c3c(sc2n1)CCCC3`, the GI50 in experiment [1] is 17.1 µM; in experiment [2] it was above 28.9 µM; in experiment [3], 3770 nM; in experiment [4], above 100 µM; in experiment [8], 5.37 µM; in experiment [7] it was above 26.1 µM. Besides, the TGI in experiment [1], in experiment [2], in experiment [3], in experiment [4], in experiment [8] and in experiment [7] was above 100 µM each time.

As for `CN(C)CCC=C1c2ccccc2C(C)(C)c2ccccc21`, the GI50 is 9.84 µM in experiment [1]; 4.25 µM in experiment [2]; 3000 nM in experiment [3]; 10.4 µM in experiment [4]; 1900 nM in experiment [5]; 13.3 µM in experiment [8]. Further, in experiment [7], the GI50 is 2.42 µM. For the same compound, the TGI in experiment [1] is 28.4 µM; in experiment [2] it was 15 µM; in experiment [3], 19 µM; in experiment [4], 22.2 µM; in experiment [5] it was 5.09 µM; in experiment [8] it was 26.2 µM. In experiment [7], the TGI came to 6.34 µM.

On to `COc1ccc2c(c1)C1OCCNC1CC2` (configuration not stated), for which the TGI in experiment [1], in experiment [3], in experiment [4], in experiment [5], in experiment [6] and in experiment [8] was above 100 µM each time. Also, the TGI in experiment [7] is above 100 µM.

On to `CCCCCCCCCCCCCCCC(=O)N[C@H](/C=C/[C@H](O)CCCCCCCCCCCCC)CO`, for which the GI50 in experiment [1] was above 100 µM; in experiment [2], above 100 µM; in experiment [3], above 100000 nM; in experiment [4], above 100 µM; in experiment [5] it was above 100000 nM; in experiment [8], above 100 µM. In experiment [7], the GI50 was above 100 µM. The TGI in experiment [1], in experiment [2], in experiment [3], in experiment [4], in experiment [5] and in experiment [8] was above 100 µM throughout. This compound displayed a TGI in experiment [7] above 100 µM.

With `O=c1c2cccc(F)c2sc2c(N3CCNCC3)nc3ccccc3c12`, the GI50 in experiment [1] was 1.33 µM; in experiment [2], 1.48 µM; in experiment [4], 1.71 µM; in experiment [5] it was 1690 nM; in experiment [6], 1.08 µM; in experiment [8], 0.974 µM. Besides, the GI50 in experiment [7] was 1.93 µM. For the same compound, the TGI stood at 3.18 µM in experiment [1]; 3.13 µM in experiment [2]; 3.11 µM in experiment [4]; 3.08 µM in experiment [5]; 3.35 µM in experiment [6]; 2.28 µM in experiment [8]. This compound yielded a TGI in experiment [7] of 3.94 µM.

As to `CCN(CC)CCOc1ccc(/C=C2\C[C@H]3[C@H]4CC=C5C[C@@H](O)CC[C@]5(C)[C@H]4CC[C@]3(C)[C@H]2O)cc1OC`, the GI50 in experiment [2] was 11.6 µM; in experiment [3], 8090 nM; in experiment [4] it was 1.43 µM; in experiment [5], 625 nM; in experiment [8], 1.93 µM; in experiment [7] it was 8.42 µM. In addition, the TGI in experiment [2] came to 20.6 µM; in experiment [3], 32 µM; in experiment [4] it was 9.82 µM; in experiment [5] it was 11.1 µM; in experiment [8] it was 11.7 µM; in experiment [7], 18.1 µM.

As for `O=C(NNc1ccc(F)cc1)C1CCC(CNS(=O)(=O)c2ccc(Cl)c(Cl)c2)CC1` (configuration not stated), the GI50 was 16.1 µM in experiment [1]; 1710 nM in experiment [3]; 9.77 µM in experiment [4]; 10800 nM in experiment [5]; 17 µM in experiment [6]; 9.03 µM in experiment [8]. The GI50 in experiment [7] is 7.91 µM. For the same compound, the TGI in experiment [1] is above 50 µM; in experiment [3], above 50 µM; in experiment [4], 39.1 µM; in experiment [5], 33.1 µM; in experiment [6], above 50 µM; in experiment [8], above 50 µM. The same compound showed a TGI in experiment [7] of 28.5 µM.

Regarding `COc1ccc2c(Cc3c4ccccc4cc4ccccc34)cncc2c1O`, the TGI was 3.04 µM in experiment [1]; 12.8 µM in experiment [3]; 0.546 µM in experiment [4]; 3.05 µM in experiment [5]; 0.551 µM in experiment [6]; above 100 µM in experiment [8]. For the same compound, in experiment [7], the TGI was found to be 14 µM.
